The values below come from patent US8058227B2, “Method of treating fibrosis in a subject in need thereof comprising administering a composition comprising a CSD” (Medical University of South Carolina, priority 2006, dated 2011).

Some results are limits rather than exact numbers.

Holding throughout (type): cell-based, human
Test [1] relates to scleroderma lung fibroblasts (SLF). Kind of test: CSD peptide treatment of SLF, Western blotting. The source says:
(§1) Fibroblasts were derived from lung tissue obtained at autopsy from scleroderma patients (SLF) and from age-, race-, and sex-matched normal subjects (NLF) and cultured as previously described (44). Cells were used in passages 2-4. The group of scleroderma patients fulfilled the criteria of American college of Rheumatology for the diagnosis of scleroderma with lung involvement. Normal human lung tissue was obtained from the Brain and Tissue Bank for Developmental Disorders (Baltimore, Md.) or from the National Disease Research Interchange (Philadelphia, Pa.). Scleroderma lung tissue was obtained from the Division of Pathology and Laboratory Medicine at the Medical University of South Carolina (MUSC). The study was approved by the Institutional Review Board for Human Subject Research at the MUSC.
(§2) The CSD peptide (amino acids 82-101 of caveolin-1; […]) (SEQ ID NO: 1) and a scrambled control peptide ([…]) (SEQ ID NO: 2) were synthesized as fusion peptides to the C terminus of the Antennapedia internalization sequence (RQIKUVFQNRRMKWKK) (SEQ ID NO: 3). Before each experiment, desiccated peptides were dissolved at a final 1 mM in 10% DMSO as described by Bernatchez et al. (4). Cells in 6-well plates at 70-80% confluence were then incubated with 1 ml serum-free DMEM containing […] CSD or scrambled peptide. After 6 h, the culture medium and cell layer were harvested.
(§3) Cell layers were harvested in boiling SDS-PAGE sample buffer; medium was dialyzed, lyophilized, and resuspended in sample buffer. Aliquots of culture medium or of cell layer representing material derived from the same number of cells was probed using the following primary antibodies and appropriate secondary antibodies. Culture medium: goat anti-human collagen I (AB758P) and rabbit anti-human tenascin-C (AB19011) from Chemicon International (Temecula, Calif.). Cell layer: rabbit antibodies against PKCα (sc-208), PKCε (sc-214), activated JNK (sc-12882), activated Akt Thr 308 (sc-166646R) and caveolin-1 (sc-894) from Santa Cruz Biotechnology (Santa Cruz, Calif.); rabbit antibodies against ERK 1/2 (9102), activated ERK 1/2 (9106), JNK (9252), Akt (9272), MEK 1/2 (9122), and activated MEK 1/2 (9121) from Cell Signaling (Beverly, Mass.); mouse monoclonal anti-ASMA (clone 1A4) from Sigma (Saint Louis, Mo.), and mouse monoclonal anti-actin (MAB1501) from Chemicon International (Temecula, Calif.).
(§4) Immunoreactive bands were quantified by densitometry using the Image 1.32J NIH software. For statistical analysis the raw densitometric data were processed and analyzed using the Prism 3.0 (GraphPad Software Inc.) statistical analysis software.

The test system of test [2] is normal lung fibroblasts (NLF). Kind of test: Collagen and ASMA expression in NLF treated with CSD and its subdomains. The following applies: 3 μM peptide. How it is done:
The indicated cell types (NLF and SLF) were cultured as described with 0, 1, 3, or 5 μM of the indicated peptides. Collagen in the medium and ASMA and actin (loading control) in the cell layer were detected by Western blotting. Blots were quantified densitometrically. The level of collagen and ASMA in cells treated with no peptide (divided by the level of actin) was set to 100 arbitrary units. Because SLF express higher levels of collagen and ASMA than do NLF, 100 arbitrary of collagen in SLF is equivalent to 195 arbitrary units of collagen in NLF and 100 arbitrary units of ASMA in SLF is equivalent to 255 arbitrary units of ASMA in NLF. The data presented are the average of the densitometric quantification of three independent experiments.
To compare the activity of CSD to its subdomains, five subdomains [A (82-88 amino acids), B (89-95), C (96-101), AB (82-95) and BC (89-101)] were synthesized in fusion with the Antennapedia internalization sequence and added to culture medium at 1, 3, and 5 μM. […] Very different results were obtained when examining ASMA expression.

Test [3] has as its system normal lung fibroblasts (NLF). Kind of test: CSD peptide treatment of NLF, Western blotting.
Text: as §1, §2, §3, §4
(In general: Immunoblotting shows a protein as a band on a membrane.)

Where [4] appears, read: 5 μM CSD peptide vs scrambled peptide.
[5] abbreviates: 5 μM CSD peptide vs scrambled peptide, collagen in culture medium, Western blotting.
Setting [6] is: CSD peptide vs scrambled peptide.

As for DGIWKASFTTFTVTKYWFYR [CSD peptide], the “time in which inhibition of collagen expression occurs” value in test [1] (5 μM CSD) and in test [3] (5 μM CSD) was “less than 5 hours” each time. In addition, the “decrease of MEK/ERK activation” value in test [1] (setting [4]) and in test [3] (setting [4]) was “about 50%” each time. For the same sequence, the “inhibition of collagen expression” value in test [1] (setting [5]) and in test [3] (setting [5]) was greater than 95% in each case. Further, the “activation of Akt” value in test [1] (CSD peptide vs Scr peptide) and in test [3] (CSD peptide vs Scr peptide) was “inhibited” each time. Moreover, the “activation of JNK” value in test [1] (CSD peptide vs Scr peptide) and in test [3] (CSD peptide vs Scr peptide) was “inhibited” throughout. In addition, the “expression of total MEK, total ERK, total Akt, or total JNK” value in test [1] (CSD peptide vs Scr peptide) and in test [3] (CSD peptide vs Scr peptide) was “did not affect” in each case. In addition, the ASMA expression result in test [1] (setting [6]) is given as “inhibited”. Further, the “expression of caveolin-1 itself, PKCα, or PKCε” value in test [1] (setting [6]) and in test [3] (setting [6]) was “did not affect” throughout. Moreover, the tenascin-C expression result in test [1] (setting [6]) and in test [3] (setting [6]) was “inhibited” each time. For the same sequence, the collagen expression result in test [2] was “completely inhibited”.
